# Tests used:
# [1] = target: Mitogen-activated protein kinase kinase kinase 20 (Homo sapiens) (UniProt Q9NYL2); experiment: Binding affinity to ZAK (unknown origin) assessed as percent of control at 100 nM by Kinomescan method relative to control
# [2] = target: T1, Dual specificity mitogen-activated protein kinase kinase 7 (Homo sapiens) (UniProt O14733); experiment: Binding affinity to MKK7 (unknown origin) assessed as percent of control at 100 nM by Kinomescan method relative to control
# T1 sequence (whole entry): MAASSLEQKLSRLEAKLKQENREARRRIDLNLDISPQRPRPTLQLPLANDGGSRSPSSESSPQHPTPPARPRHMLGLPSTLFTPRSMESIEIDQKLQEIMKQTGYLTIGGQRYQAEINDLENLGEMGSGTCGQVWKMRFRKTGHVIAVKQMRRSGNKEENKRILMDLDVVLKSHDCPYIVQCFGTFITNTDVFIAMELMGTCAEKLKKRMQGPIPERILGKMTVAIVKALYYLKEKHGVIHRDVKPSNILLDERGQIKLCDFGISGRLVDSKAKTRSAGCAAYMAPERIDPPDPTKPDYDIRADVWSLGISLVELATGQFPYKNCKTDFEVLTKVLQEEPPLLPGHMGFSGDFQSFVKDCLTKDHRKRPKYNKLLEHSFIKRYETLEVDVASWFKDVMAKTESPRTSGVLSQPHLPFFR
# [3] = target: T2, Dual specificity mitogen-activated protein kinase kinase 6 (Homo sapiens, UniProt P52564); experiment: Inhibition of MKK6 (unknown origin)
# T2 sequence (P52564 whole entry): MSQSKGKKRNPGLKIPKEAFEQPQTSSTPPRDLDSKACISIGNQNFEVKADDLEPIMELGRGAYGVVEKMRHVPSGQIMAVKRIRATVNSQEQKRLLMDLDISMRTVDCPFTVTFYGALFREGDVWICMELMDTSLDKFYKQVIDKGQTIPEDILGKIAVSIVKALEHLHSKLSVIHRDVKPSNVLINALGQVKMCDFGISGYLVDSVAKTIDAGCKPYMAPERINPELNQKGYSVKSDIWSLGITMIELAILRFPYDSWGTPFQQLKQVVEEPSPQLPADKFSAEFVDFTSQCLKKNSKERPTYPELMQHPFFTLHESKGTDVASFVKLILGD
# Sequence of Mitogen-activated protein kinase kinase kinase 20 (Homo sapiens) (Q9NYL2 2-800 limits assumed): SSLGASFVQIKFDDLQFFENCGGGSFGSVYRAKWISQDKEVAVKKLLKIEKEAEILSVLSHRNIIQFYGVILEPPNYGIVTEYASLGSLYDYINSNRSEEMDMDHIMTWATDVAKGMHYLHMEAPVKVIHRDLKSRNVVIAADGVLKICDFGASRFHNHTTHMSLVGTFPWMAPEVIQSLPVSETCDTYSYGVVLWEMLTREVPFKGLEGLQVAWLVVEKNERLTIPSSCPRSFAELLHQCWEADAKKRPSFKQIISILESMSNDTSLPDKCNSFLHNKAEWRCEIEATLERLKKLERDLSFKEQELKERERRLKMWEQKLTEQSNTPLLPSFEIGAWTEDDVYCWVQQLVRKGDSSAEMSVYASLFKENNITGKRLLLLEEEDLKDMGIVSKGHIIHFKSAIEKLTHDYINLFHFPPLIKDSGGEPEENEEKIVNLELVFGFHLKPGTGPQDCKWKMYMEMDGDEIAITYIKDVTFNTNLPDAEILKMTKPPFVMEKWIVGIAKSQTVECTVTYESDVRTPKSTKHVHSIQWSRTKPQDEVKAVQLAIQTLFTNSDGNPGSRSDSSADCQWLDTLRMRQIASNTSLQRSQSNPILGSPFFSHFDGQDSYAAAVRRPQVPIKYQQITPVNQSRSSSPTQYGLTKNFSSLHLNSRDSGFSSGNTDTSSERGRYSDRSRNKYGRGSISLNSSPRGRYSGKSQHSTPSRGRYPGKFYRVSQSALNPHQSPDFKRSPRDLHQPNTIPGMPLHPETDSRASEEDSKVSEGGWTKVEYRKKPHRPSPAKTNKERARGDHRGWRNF
smiles,measurement,setting,value
CCCS(=O)(=O)Nc1ccc(F)c(C(=O)c2ccc3[nH]c4ncc(-c5ccc(-c6nnn[nH]6)cc5)cc4c3c2)c1F,Activity,[1],100%
same,Activity,[2],100%
CCCS(=O)(=O)Nc1ccc(F)c(C(=O)c2n[nH]c3ncc(-c4ccc(O)cc4)cc23)c1F,Activity,[1],0%
CCCS(=O)(=O)Nc1ccc(F)c(C(=O)c2n[nH]c3ncc(-c4ccc(S(=O)(=O)NCC(O)CO)cc4)cc23)c1F (stereo unspecified),Activity,[1],29%
same,Activity,[2],100%
CCCS(=O)(=O)Nc1ccc(F)c(C(=O)c2ccc3[nH]c4ncc(-c5ccc(O)cc5)cc4c3c2)c1F,Activity,[1],100%
same,Activity,[2],100%
CCCS(=O)(=O)Nc1ccc(F)c(C(=O)c2ccc3[nH]c4ncc(-c5ccccc5F)cc4c3c2)c1F,Activity,[1],100%
same,Activity,[2],100%
NC(=O)c1ccc2[nH]c3ncnc(-c4ccccc4)c3c2c1,IC50,[3],< 1000 nM
CCCS(=O)(=O)Nc1ccc(F)c(C(=O)c2ccc3[nH]c4ncc(-c5ccc(Cl)cc5)cc4c3c2)c1F,Activity,[1],100%
same,Activity,[2],100%
CCCS(=O)(=O)Nc1ccc(F)c(C(=O)c2ccc3[nH]c4ncc(-c5ccc(C(=O)NCC(O)CO)cc5)cc4c3c2)c1F (stereo unspecified),Activity,[1],88%
same,Activity,[2],100%
CCCS(=O)(=O)Nc1ccc(F)c(C(=O)c2ccc3[nH]c4ncc(-c5ccncc5)cc4c3c2)c1F,Activity,[1],94%
same,Activity,[2],91%
CCCS(=O)(=O)Nc1ccc(F)c(C(=O)c2c[nH]c3ncc(-c4ccc(O)cc4)cc23)c1F,Activity,[1],0.15%
same,Activity,[2],100%
CCCS(=O)(=O)Nc1ccc(F)c(C(=O)c2c[nH]c3ncc(-c4ccc(OCC(O)CO)cc4)cc23)c1F (stereo unspecified),Activity,[1],0.35%
same,Activity,[2],99%
CCCS(=O)(=O)Nc1ccc(F)c(C(=O)c2ccc3[nH]c4ncc(-c5ccc(OCC(O)CO)cc5)cc4c3c2)c1F (stereo unspecified),Activity,[1],100%
same,Activity,[2],96%
CCCS(=O)(=O)Nc1ccc(F)c(C(=O)c2ccc3[nH]c4ncc(-c5ccc(C(N)=O)cc5)cc4c3c2)c1F,Activity,[1],89%
same,Activity,[2],98%
CCCS(=O)(=O)Nc1ccc(F)c(C(=O)c2ccc3[nH]c4ncc(-c5ccc(C(=O)O)cc5)cc4c3c2)c1F,Activity,[1],98%
same,Activity,[2],100%
CCCS(=O)(=O)Nc1ccc(F)c(C(=O)c2c[nH]c3ncc(-c4cccnc4)cc23)c1F,Activity,[1],0.6%
same,Activity,[2],100%
CCCS(=O)(=O)Nc1ccc(F)c(C(=O)c2c[nH]c3ncc(-c4ccc(S(N)(=O)=O)cc4)cc23)c1F,Activity,[1],94%
same,Activity,[2],78%
CCCS(=O)(=O)Nc1ccc(F)c(C(=O)c2ccc3[nH]c4ncc(-c5ccc(S(N)(=O)=O)cc5)cc4c3c2)c1F,Activity,[1],100%
same,Activity,[2],100%
CCCS(=O)(=O)Nc1ccc(F)c(C(=O)c2n[nH]c3ncc(-c4ccc(C(=O)NCC(O)CO)cc4)cc23)c1F (stereo unspecified),Activity,[1],2.8%
same,Activity,[2],97%
CCCS(=O)(=O)Nc1ccc(F)c(C(=O)c2ccc3[nH]c4ncc(-c5ccc(S(=O)(=O)NCC(O)CO)cc5)cc4c3c2)c1F (stereo unspecified),Activity,[1],100%
same,Activity,[2],97%

# — ChEMBL document CHEMBL5113505 (Eur J Med Chem, 2022)
